We go through eight molecules from US20060122279A1, “Hydrophobic polyamine amides as potent lipopolysaccharide sequestrants” (priority 2004, published 2006).

Test [1] is classed as binding, E. coli 0111:B4. As to conditions: for EC50: E. coli 0111:B4 LPS, Tables 1-3, read-out: ED50 (half-maximal effective displacement of BC probe from LPS). How it is done: Polymyxin B (PMB), a peptide antibiotic known to bind and neutralize LPS^47 serves as the positive control and reference compound for every plate, enabling the quantitative assessment of repeatability and reproducibility (CV and Z′ factors) for the assay. Robotic liquid handling is performed on a Precision 2000 automated microplate pipetting system, programmed using the Precision Power software, Bio-Tek Instruments Inc., VT, USA. Stock solutions of LPS (5 mg/ml; E. coli 0111:B4; procured from Sigma) and BC (500 μM) are prepared in Tris buffer (pH 7.4, 50 mM). 1 ml each of the LPS and BC stocks are mixed and diluted in Tris buffer to a final volume of 100 ml, yielding final concentrations of 50 μg/ml of LPS and 5 μM BC. 40 μl of this BC:LPS mixture is added to each well of the plate using the Precision 2000. Fluorescence measurements are made at 25° C. on a Fluoromax-3 with Micromax Microwell 384-well plate reader, using DataMax software, Jobin Yvon Inc., N.J. The BC excitation wavelength is 580 nm, emission spectra are taken at 620 nm with both emission and excitation monochromator bandpasses set at 5 nm.

The test system of test [2] is murine macrophage J774.A1 cells. In words: Nitric oxide (NO) inhibition in LPS-stimulated J774.A1 cells (Griess). The test is classed as cell-based. As to conditions: for prevention of LPS-induced NO release from J774.A1 macrophages: in words. How it is done:
Murine monocytes (J774.A1 cells) produce measurable quantities of NO on exposure to LPS and provide a model for the rapid assessment of compounds to neutralize LPS activity. […] In all experiments, Polymyxin B (PMB), a decapeptide antibiotic, known to bind and neutralize LPS,^29;47;48 is used as a reference compound.
Nitric oxide production is measured as total nitrite in murine macrophage J774.A1 cells using the Griess reagent system.^53;54 Murine macrophage J774.A1 cells are grown in RPMI-1640 cell-culture medium containing L-glutamine and sodium bicarbonate and supplemented with 10% fetal bovine serum, 1% L-glutamine-penicillin-streptomycin solution, and 200 μg/ml L-arginine at 37° C. in a 5% CO2 atmosphere. Cells are plated at ˜2×10^6/ml in a volume of 40 μl/well, in 384 well, flat-bottomed, cell culture treated microtiter plates until confluency and subsequently stimulated with 100 ng/ml lipopolysaccharide (LPS). Concurrent to LPS stimulation, serially diluted concentrations of test compounds are added to the cell medium and left to incubate overnight for 16 h. Polymyxin B is used as reference compound in each plate. Positive—(LPS stimulation only) and negative-controls (J774.A1 medium only) are included in each experiment. Nitrite concentrations are measured adding 30 μl of supernatant to equal volumes of Griess reagents (50 μl/well; 0.1% NED solution in ddH2O and 1% sulfanilamide, 5% phosphoric acid solution in ddH2O) and incubating for 15 minutes at room temperature in the dark. Absorbance at 535 nm is measured using a Molecular Devices Spectramax M2 multifunction plate reader (Sunnyvale, Calif.). Nitrite concentrations are interpolated from standard curves obtained from serially diluted sodium nitrite standards.
On the technique in general: Griess reagent forms a coloured azo dye with nitrite.

Test [3] deals with NFκB. As to the kind of experiment: NFκB inhibition (LPS-induced). In kind it is cell-based. As to conditions: for IC50: Table 7 focused library, NFκB inhibition, read-out: NFκ B; for prevention of LPS-induced NFκβ cytokine release from stimulated lymphocytes: in words. The source says: A focused library of alkyl or acyl c-substituted lysine-spermine conjugates is synthesized with even carbon-numbered chains of C14 to C20 lengths. […] Furthermore, the data showhigh activity compounds are those with chain lengths between C16 and C20. […] The exemplary compounds L-Lys-ε-(stearoyl)-N^1-spermine, D-Lys-ε-(stearoyl)-N^1-spermine, L-Lys-ε-(octadecanyl)-N^1-spermine and D-Lys-ε-(octadecanyl)—N1-spermine all show high activity for the prevention of LPS-induced NFκβ cytokine release from stimulated lymphocytes. Furthermore, the exemplary compounds L-Lys-ε-(stearoyl)-N^1-spermine, D-Lys-ε-(stearoyl)-N^1-spermine, L-Lys-ε-(octadecanyl)-N^1-spermine and D-Lys-ε-(octadecanyl)-N^1-spermine all show high activity for the prevention of LPS-induced NO release from stimulated lymphocytes.

Test [4] relates to CF-1 mice. The following applies: previous studies (ref. 37); cited from earlier work.
Where [5] appears, read: J774.A1 cells, 100 ng/ml LPS, 16 h, Tables 1-3, read-out: NO IC50.
Setting [6] is: Mus musculus, J774.A1, 16 h, J774.A1 cells, 100 ng/ml LPS, 16 h, Tables 1-3, read-out: NO IC50.
[7] abbreviates: Mus musculus, J774.A1, Table 7 focused library, NO inhibition, read-out: NO.
The mark [8] stands for this setting: Table 7 focused library, NO inhibition, read-out: NO.

Several values for one entry are separate records, joined by “and”; a condition that tells them apart may be missing. Identical values can stand only once. Like-named read-outs stand apart in the source and are kept apart here.

Consider `CCCCCCCCCCCCCCCCCCCC(=O)NCCCCC(N)C(=O)NCCCNCCCCNCCCN` [Compound 7, L-Lys-ε-(eicosanoyl)-N^1-spermine], for which the EC50 in test [1] stood at 6.46 µM. The IC50 in test [2] (setting [5]) was found to be 1.21 µM; in test [2] (setting [6]), 1.2 µM; in test [2] (setting [7]) it was 4.69 µM; in test [3], 1.24 µM.
As for `CCCCCCCCCCCCCCCCCC(=O)NCCCCC(N)C(=O)NCCCNCCCCNCCCN` [Compound 9, L-Lys-ε-(stearoyl)-N^1-spermine], the EC50 in test [1] is 16 µM and 16.4 µM. In addition, the IC50 came out at 18.1 µM in test [2] (setting [5]), 8.78 µM in test [2] (setting [7]) and 0.736 µM in test [3]. For the same molecule, the “prevention of LPS-induced NO release from J774.A1 macrophages” value (“prevention of LPS-induced NO release” for short) in test [2] was “high activity”. Besides, the “prevention of LPS-induced NFκβ cytokine release from stimulated lymphocytes” value (shortened to “prevention … from stimulated lymphocytes”) in test [3] is “high activity”.
For `CCCCCCCCCCCCCCCC(=O)NCCCCC(N)C(=O)NCCCNCCCCNCCCN` [Compound 14, L-Lys(palmitoyl)-N^1-spermine], the EC50 in test [1] is 11 µM and 10.7 µM. For the same molecule, the IC50 in test [2] (setting [5]) turned out to be 6.41 µM; in test [2] (setting [7]) it was 16.8 µM; in test [2] (read-out: NO IC50, J774.A1 cells, 100 ng/ml LPS, 16 h, Tables 1-3) it was 6.4 µM; in test [3], 0.819 µM.
Consider `CCCCCCCCCCCCCC(=O)NCCCCC(N)C(=O)NCCCNCCCCNCCCN` [Compound 16, L-Lys-ε-(myristoyl)-N^1-spermine], for which the EC50 in test [1] was 5.63 µM. Further, the values for the IC50 in test [2] (setting [6]), in test [2] (setting [7]) and in test [3] were 1.6 µM, 22.2 µM and 0.753 µM, respectively.
Turning to `CCCCCCCCCCCCCCCCNCCCCC(N)C(=O)NCCCNCCCCNCCCN` [Compound 26, L-Lys-ε-(“hexadecyl)-N^1-spermine], the EC50 in test [1] is 5.6 µM and 5.56 µM. Moreover, the IC50 came out at 5.6 µM in test [1] (b47, cis-unsaturated vs saturated alkyl); 3.78 µM in test [2] (setting [7]); 0.19 µM in test [3].
For `CCCCCCCCCCCCCCCCCCNCCCC[C@H](N)C(=O)NCCCNCCCCNCCCN` [Compound 44, L-Lys-ε-(octadecanyl)-N^1-spermine], in test [2] (setting [8]), the IC50 stood at 2.25 µM. In addition, in test [2], the “prevention of LPS-induced NO release” value is reported as “high activity”. In addition, the “prevention … from stimulated lymphocytes” value in test [3] is “high activity”.
Turning to `CCCCCCCCCCCCCCCCCCNCCCC[C@@H](N)C(=O)NCCCNCCCCNCCCN` [Compound 48, D-Lys-ε-(octadecanyl)-N^1-spermine], in test [2] (setting [8]), the IC50 was 3.08 µM. Moreover, the “prevention of LPS-induced NO release” value in test [2] is on record as “high activity”. In addition, the “prevention … from stimulated lymphocytes” value in test [3] is on record as “high activity”.
For the molecule `CCCCCCCC/C=C\CCCCCCCC(=O)OCC(COC(=O)CCCCCCC/C=C\CCCCCCCC)NC(=O)C(CCCNCCCN)NCCCN` (stereo not shown) [DOSPER], in test [4], the window of protection was 15 min.
